Experimental data taken from US8841343B2, “Composition for repelling mosquitoes” (Bio & Hnt, Inc., priority 2006, dated 2014).
Values joined by “and” are separate entries in the source; they are usually repeats but may differ in a detail not shown here. Equal values may be shown once.

Tested on: Aedes aegypti
Assay: Examination of repellent activity using skin test (treated human forearm in cage of about 100 mated female mosquitoes)
Format: in vivo
Details: for Effective repellency duration (hour) (mean ± standard deviation): maximum measurement time 12 hours
From the text: Citronellic acid and geranic acid, which are used in the present invention, are commercially available or can directly be synthesized. In this embodiment, products of Aldrich Co. (product names are respectively Citronellic acid and Geranic acid) were purchased and used as citronellic acid and geranic acid. Purities of the above two compounds were examined using a gas chromatograph (GC) and a gas chromatograph-mass spectrometry (GC-MS). The compounds having purity of 99.5% or greater were only used. Respective ingredients of the above compounds were added to isopropyl alcohol of 91% to make test samples consisting of a solution in the concentration of 0.5 to 50%. The samples were used for mosquito repellent efficacy experiments.
The test samples manufactured as above underwent repellent effective experiments with respect to Aedes which is a main mosquito group attacking human.
In this embodiment, Aedes aegypti was used as test mosquitoes. The Aedes aegypti was supplied from Korea Research Institute of Bioscience and Biotechnology and reared indoor from generation to generation.
The larvae of the Aedes aegypti were reared in a plastic container of 22×14×7 cm containing distilled water with small amount of one-to-one mixture of chicken feed and yeast. Fresh mosquito pupae were transferred into a paper cup containing water and then placed in a transparent rearing cage to emerge as adults. Here, the rearing cage was constructed with metal net. Males and females of the freshly emerged mosquitoes were transferred to a rearing cage at one-to-one ratio, and left for two or three days for mating. The female mosquitoes were then used for repellency tests. Eight percent (8%) sugar water was supplied for the adult mosquitoes. The following rearing conditions were maintained: light condition of 16 h:8 h (day:night), temperature of 27±2° C., and relative humidity of 80±10%.
In order to examine effectiveness of the mosquito repellent of the prepared sample solutions, one (1) ml of a sample solution was uniformly applied, using a metal rod, on a forearm of a volunteer human test subject between wrist and elbow. Thereafter, the arm treated with the test solution was inserted in a bioassay cage, constructed with Plexiglass of 50×50×50 cm containing approximately 100 mated female mosquitoes. The number of mosquitoes trying to bite was recorded for three minutes in every thirty minutes for up to 4 hours or in every hour for up to 12 hours. The time required to get the arm bitten by two cumulative mosquitoes was regarded as effective repellency duration. A net window of 40×40 cm was present at each side and top of the Plexiglass bioassay cage to allow air ventilation. A 15×15 cm hole was prepared at the front side of the Plexiglass bioassay cage and a long net sleeve was attached to the hole so that the test arm could be put into the cage for repellency test.
At the beginning of each repellency test, an arm treated with no solvent was placed in the bioassay cage containing mosquitoes, in order to examine blood feeding activity of the mated female test mosquitoes. The repellency tests with the test solutions were carried out only when the arm was bitten by at least two mosquitoes for initial three minutes.
Repellent activity against Aedes was examined in accordance with the aforementioned method using the samples which respectively contain citronellic acid and geranic acid. Also, mosquito repellent activity was measured with solutions which contain DEET and Picadirin, wherein the DEET and Picadirin are commercially available mosquito repellents which are currently recommended by the Center for Disease Control of the United States.
In Table 4 to Table 6, the repellent efficiency was calculated using the following Equation 1.

[1] = 10% (0.25 mg/cm^3), 120 minutes
[2] = 10% (0.25 mg/cm^3), 150 minutes
[3] = 10% (0.25 mg/cm^3), 180 minutes
[4] = 10% (0.25 mg/cm^3), 210 minutes
[5] = 10% (0.25 mg/cm^3), 240 minutes
[6] = concentration 2% (0.05 mg/cm^3), time until arm bitten by two cumulative mosquitoes
[7] = concentration 10% (0.25 mg/cm^3), time until two cumulative bites, maximum measurement time 240 minutes

CC(C)=CCCC(C)CC(=O)O (racemic) [Citronellic acid, citronellic acid] was tested, and the “Repellent efficiency (%) per time (minutes)” value (2% (0.05 mg/cm^3), 30 minutes) was 100%, the “Repellent efficiency (%) per time (minutes)” value (2% (0.05 mg/cm^3), 60 minutes) was 84.7% and the “Repellent efficiency (%) per time (minutes)” value (2% (0.05 mg/cm^3), 90 minutes) was 71.3%. For the same compound, the “Repellent efficiency (%) per time (minutes)” value (2% (0.05 mg/cm^3), 120 minutes) was 56.4%, the “Repellent efficiency (%) per time (minutes)” value (2% (0.05 mg/cm^3), 150 minutes) was 37.8% and the “Repellent efficiency (%) per time (minutes)” value (2% (0.05 mg/cm^3), 180 minutes) was 15.2%. For the same compound, the “Repellent efficiency (%) per time (minutes)” value (2% (0.05 mg/cm^3), 210 minutes) was 7.4%, the “Repellent efficiency (%) per time (minutes)” value (2% (0.05 mg/cm^3), 240 minutes) was 0% and the “Repellent efficiency (%) per time (minutes)” value (10% (0.25 mg/cm^3), 30 minutes) was 100%. The “Repellent efficiency (%) per time (minutes)” value (10% (0.25 mg/cm^3), 60 minutes) was 100%, the “Repellent efficiency (%) per time (minutes)” value (10% (0.25 mg/cm^3), 90 minutes) was 100% and the “Repellent efficiency (%) per time (minutes)” value [1] was 100%. For the same compound, the “Repellent efficiency (%) per time (minutes)” value [2] was 100%, the “Repellent efficiency (%) per time (minutes)” value [3] was 85.7% and the “Repellent efficiency (%) per time (minutes)” value [4] was 71.4%. For the same compound, the “Repellent efficiency (%) per time (minutes)” value [5] was 57.1%, the “Repellent efficiency (%) per time (hours)” value (15% (0.375 mg/cm^3), 1 hour) was 100% and the “Repellent efficiency (%) per time (hours)” value (15% (0.375 mg/cm^3), 2 hours) was 75%. For the same compound, the “Repellent efficiency (%) per time (hours)” value (15% (0.375 mg/cm^3), 3 hours) was 75%, the “Repellent efficiency (%) per time (hours)” value (15% (0.375 mg/cm^3), 4 hours) was 75% and the “Repellent efficiency (%) per time (hours)” value (15% (0.375 mg/cm^3), 5 hours) was 50%. The “Repellent efficiency (%) per time (hours)” value (15% (0.375 mg/cm^3), 6 hours) was 50%, the “Repellent efficiency (%) per time (hours)” value (15% (0.375 mg/cm^3), 7 hours) was 37.5% and the “Repellent efficiency (%) per time (hours)” value (15% (0.375 mg/cm^3), 8 hours) was 37.5%. The “Repellent efficiency (%) per time (hours)” value (15% (0.375 mg/cm^3), 9 hours) was 25%, the “Repellent efficiency (%) per time (hours)” value (30% (0.75 mg/cm^3), 1 hour) was 100% and the “Repellent efficiency (%) per time (hours)” value (30% (0.75 mg/cm^3), 2 hours) was 87.5%. The “Repellent efficiency (%) per time (hours)” value (30% (0.75 mg/cm^3), 3 hours) was 75%, the “Repellent efficiency (%) per time (hours)” value (30% (0.75 mg/cm^3), 4 hours) was 75% and the “Repellent efficiency (%) per time (hours)” value (30% (0.75 mg/cm^3), 5 hours) was 75%. For the same compound, the “Repellent efficiency (%) per time (hours)” value (30% (0.75 mg/cm^3), 6 hours) was 62.5%, the “Repellent efficiency (%) per time (hours)” value (30% (0.75 mg/cm^3), 7 hours) was 62.5% and the “Repellent efficiency (%) per time (hours)” value (30% (0.75 mg/cm^3), 8 hours) was 62.5%. The “Repellent efficiency (%) per time (hours)” value (30% (0.75 mg/cm^3), 9 hours) was 62.5%, the “Repellent efficiency (%) per time (hours)” value (30% (0.75 mg/cm^3), 10 hours) was 50% and the “Repellent efficiency (%) per time (hours)” value (30% (0.75 mg/cm^3), 11 hours) was 50%. The “Repellent efficiency (%) per time (hours)” value (30% (0.75 mg/cm^3), 12 hours) was 50%, the “Repellent efficiency (%) per time (hours)” value (50% (1.25 mg/cm^3), 1 hour) was 100% and the “Repellent efficiency (%) per time (hours)” value (50% (1.25 mg/cm^3), 2 hours) was 100%. For the same compound, the “Repellent efficiency (%) per time (hours)” value (50% (1.25 mg/cm^3), 3 hours) was 100%, the “Repellent efficiency (%) per time (hours)” value (50% (1.25 mg/cm^3), 4 hours) was 100% and the “Repellent efficiency (%) per time (hours)” value (50% (1.25 mg/cm^3), 5 hours) was 93.3%. For the same compound, the “Repellent efficiency (%) per time (hours)” value (50% (1.25 mg/cm^3), 6 hours) was 86.7%, the “Repellent efficiency (%) per time (hours)” value (50% (1.25 mg/cm^3), 7 hours) was 86.7% and the “Repellent efficiency (%) per time (hours)” value (50% (1.25 mg/cm^3), 8 hours) was 86.7%. The “Repellent efficiency (%) per time (hours)” value (50% (1.25 mg/cm^3), 9 hours) was 80%, the “Repellent efficiency (%) per time (hours)” value (50% (1.25 mg/cm^3), 10 hours) was 73.3% and the “Repellent efficiency (%) per time (hours)” value (50% (1.25 mg/cm^3), 11 hours) was 73.3%. The “Repellent efficiency (%) per time (hours)” value (50% (1.25 mg/cm^3), 12 hours) was 73.3%, the “repellency (in words)” value (at the level of 0.0125 mg/cm^3) was “did not represent any repellency” and the “time for which repellent efficiency of 100% was shown” value (from here on “time … of 100% was shown”) (at the level of 0.05 mg/cm^3) was 30 min. For the same compound, the “time … of 100% was shown” value (at the level of 0.25 mg/cm^3) was 150 min, the “Effective repellency duration (minute) (mean ± standard deviation)” value (concentration 0.5% (0.0125 mg/cm^3), time until arm bitten by two cumulative mosquitoes) was 0 ± 0 min and the “Effective repellency duration (minute) (mean ± standard deviation)” value [6] was 60 ± 0 min. The “Effective repellency duration (minute) (mean ± standard deviation)” value [7] was 240 ± 0 min, the “Effective repellency duration (minute) (mean ± standard deviation)” value (concentration 10% (0.25 mg/cm^3), time until two cumulative bites, maximum measurement time 240 minutes, listed as citronellic acid) was 240 min and the “Effective repellency duration (hour) (mean ± standard deviation)” value (concentration 15% (0.375 mg/cm^3)) was 5.7 ± 2.03 h. The “Effective repellency duration (hour) (mean ± standard deviation)” value (concentration 30% (0.75 mg/cm^3)) was 9.3 ± 1.76 h, the “Effective repellency duration (hour) (mean ± standard deviation)” value (concentration 30% (0.75 mg/cm^3), listed as citronellic acid) was 9.3 h and the “Effective repellency duration (hour) (mean ± standard deviation)” value (concentration 50% (1.25 mg/cm^3)) was 9.3 ± 1.76 h. The “Effective repellency duration (hour) (mean ± standard deviation)” value (concentration 50% (1.25 mg/cm^3), listed as citronellic acid) was 9.3 h and the repellent efficiency (for 8 hours at the level of 1.25 mg/cm^3) was roughly 90%.

CCN(CC)C(=O)c1cccc(C)c1 [DEET, N,N-diethyl-m-toluamide, reference compound] was tested, and the “Repellent efficiency (%) per time (minutes)” value (2% (0.05 mg/cm^3), 30 minutes) was 100%, the “Repellent efficiency (%) per time (minutes)” value (2% (0.05 mg/cm^3), 60 minutes) was 0% and the “Repellent efficiency (%) per time (minutes)” value (2% (0.05 mg/cm^3), 90 minutes) was 0%. For the same compound, the “Repellent efficiency (%) per time (minutes)” value (2% (0.05 mg/cm^3), 120 minutes) was 0%, the “Repellent efficiency (%) per time (minutes)” value (2% (0.05 mg/cm^3), 150 minutes) was 0% and the “Repellent efficiency (%) per time (minutes)” value (2% (0.05 mg/cm^3), 180 minutes) was 0%. The “Repellent efficiency (%) per time (minutes)” value (2% (0.05 mg/cm^3), 210 minutes) was 0%, the “Repellent efficiency (%) per time (minutes)” value (2% (0.05 mg/cm^3), 240 minutes) was 0% and the “Repellent efficiency (%) per time (minutes)” value (10% (0.25 mg/cm^3), 30 minutes) was 100%. The “Repellent efficiency (%) per time (minutes)” value (10% (0.25 mg/cm^3), 60 minutes) was 100%, the “Repellent efficiency (%) per time (minutes)” value (10% (0.25 mg/cm^3), 90 minutes) was 100% and the “Repellent efficiency (%) per time (minutes)” value [1] was 100%. For the same compound, the “Repellent efficiency (%) per time (minutes)” value [2] was 87.5%, the “Repellent efficiency (%) per time (minutes)” value [3] was 81.3% and the “Repellent efficiency (%) per time (minutes)” value [4] was 78.1%. For the same compound, the “Repellent efficiency (%) per time (minutes)” value [5] was 71.9%, the “time … of 100% was shown” value (at the level of 0.25 mg/cm^3) was 120 min and the “Effective repellency duration (minute) (mean ± standard deviation)” value [6] was 70 min and 70 ± 10.0 min. The “Effective repellency duration (minute) (mean ± standard deviation)” value [7] was 218 min and 218 ± 10.8 min.
